Measurements taken from ChEMBL document CHEMBL3407492, “BMS-871: a novel orally active pan-Notch inhibitor as an anticancer agent” (Bioorg Med Chem Lett, 2015).

System: not listed separately
Assay: Metabolic stability in mouse liver microsomes assessed as fraction of 0.5 uM parent compound remaining after 10 mins
Format: ADME
Details: read-out: Stability

| Structure (SMILES) | remaining at 10 min, 0.5 µM [%] |
| --- | --- |
| CN1C(=O)[C@@H](NC(=O)[C@H](CCC(F)(F)F)[C@@H](C(N)=O)c2ccc(F)cc2)N=C(c2ccccc2)c2ccccc21 | 65 |
| CN1C(=O)[C@@H](NC(=O)[C@H](CCC(F)(F)F)[C@@H](C(N)=O)c2ccc(F)c(F)c2)N=C(c2ccccc2)c2ccccc21 | 29 |
| CN1C(=O)[C@@H](NC(=O)[C@H](CCC(F)(F)F)[C@@H](C(N)=O)c2cccc(S(C)(=O)=O)c2)N=C(c2ccccc2)c2ccccc21 | 62 |
| CCC(CC)[C@H](C(N)=O)[C@@H](CCC(F)(F)F)C(=O)N[C@H]1N=C(c2ccccc2)c2ccccc2N(C)C1=O | 7 |
| CN1C(=O)[C@@H](NC(=O)[C@H](CCC(F)(F)F)[C@@H](C(N)=O)c2cc(F)cc(F)c2)N=C(c2ccccc2)c2ccccc21 | 21 |
| CN1C(=O)[C@@H](NC(=O)[C@H](CCC(F)(F)F)[C@@H](C(N)=O)c2cccc(OC(F)(F)F)c2)N=C(c2ccccc2)c2ccccc21 | 82 |
| CCC(CC)[C@H](C(N)=O)[C@@H](CC(C)(C)C)C(=O)N[C@H]1N=C(c2ccccc2)c2ccccc2N(C)C1=O | 6 |
| CN1C(=O)[C@@H](NC(=O)[C@H](CCC(F)(F)F)[C@@H](C(N)=O)c2ccc(F)cc2F)N=C(c2ccccc2)c2ccccc21 | 31 |
| NC(=O)[C@@H](c1cnoc1)[C@@H](CCC(F)(F)F)C(=O)N[C@H]1N=C(c2ccccc2)c2ccccc2NC1=O | 100 |
| CCC(CC)[C@H](C(N)=O)[C@@H](CC(C)C)C(=O)N[C@H]1N=C(c2ccccc2)c2ccccc2N(C)C1=O | 2 |
| COc1ccc([C@H](C(N)=O)[C@@H](CCC(F)(F)F)C(=O)N[C@H]2N=C(c3ccccc3)c3ccccc3N(C)C2=O)cc1 | 5 |
| Cc1nc([C@H](C(N)=O)[C@@H](CCC(F)(F)F)C(=O)N[C@H]2N=C(c3ccccc3)c3ccccc3N(C)C2=O)no1 | 24 |
| NC(=O)[C@@H](c1ncon1)[C@@H](CCC(F)(F)F)C(=O)N[C@H]1N=C(c2ccccc2)c2ccccc2NC1=O | 83 |
| CN1C(=O)[C@@H](NC(=O)[C@H](CCC(F)(F)F)[C@@H](C(N)=O)c2cccc(C(F)(F)F)c2)N=C(c2ccccc2)c2ccccc21 | 59 |
| Cc1cccc([C@H](C(N)=O)[C@@H](CCC(F)(F)F)C(=O)N[C@H]2N=C(c3ccccc3)c3ccccc3N(C)C2=O)c1 | 7 |
| NC(=O)[C@@H](c1cocn1)[C@@H](CCC(F)(F)F)C(=O)N[C@H]1N=C(c2ccccc2)c2ccccc2NC1=O | 99 |
| CCC[C@H](C(N)=O)[C@@H](CC(F)(F)F)C(=O)N[C@H]1N=C(c2ccccc2)c2ccccc2N(C)C1=O | 51 |
| Cc1nocc1[C@H](C(N)=O)[C@@H](CCC(F)(F)F)C(=O)N[C@H]1N=C(c2ccccc2)c2ccccc2N(C)C1=O | 23 |
| Cc1cc([C@H](C(N)=O)[C@@H](CCC(F)(F)F)C(=O)N[C@H]2N=C(c3ccccc3)c3ccccc3N(C)C2=O)no1 | 10 |
| CN1C(=O)[C@@H](NC(=O)[C@H](CCC(F)(F)F)[C@@H](C(N)=O)c2ccccc2)N=C(c2ccccc2)c2ccccc21 | 74 |

System: MDA-MB-157
Assay: In vivo antitumor activity against human MDA-MB-157 cells xenograft model assessed as tumor growth inhibition at 7.5 mg/kg, po qd for 10 days on - 2 days off - 5 days on
Format: functional
Details: read-out: TGI

| Structure (SMILES) | inhibition in vivo at 7.5 mg/kg [%] |
| --- | --- |
| CN1C(=O)[C@@H](NC(=O)[C@H](CCC(F)(F)F)[C@@H](C(N)=O)c2ccccc2)N=C(c2ccccc2)c2ccccc21 | 63 |

System: TALL-1
Assay: Anticancer activity against human TALL-1 cells assessed as cell number by coulter channelyzer
Format: functional, cell-based
Details: not given

| Structure (SMILES) | IC50 [nM] |
| --- | --- |
| CN1C(=O)[C@@H](NC(=O)[C@H](CCC(F)(F)F)[C@@H](C(N)=O)c2ccc(F)cc2)N=C(c2ccccc2)c2ccccc21 | 5 |
| CN1C(=O)[C@@H](NC(=O)[C@H](CCC(F)(F)F)[C@@H](C(N)=O)c2ccc(F)c(F)c2)N=C(c2ccccc2)c2ccccc21 | 4 |
| CN1C(=O)[C@@H](NC(=O)[C@H](CCC(F)(F)F)[C@@H](C(N)=O)c2cc(F)cc(F)c2)N=C(c2ccccc2)c2ccccc21 | 4 |
| CN1C(=O)[C@@H](NC(=O)[C@H](CCC(F)(F)F)[C@@H](C(N)=O)c2cccc(OC(F)(F)F)c2)N=C(c2ccccc2)c2ccccc21 | 26 |
| CN1C(=O)[C@@H](NC(=O)[C@H](CCC(F)(F)F)[C@@H](C(N)=O)c2ccc(F)cc2F)N=C(c2ccccc2)c2ccccc21 | 4 |
| CCC(CC)[C@H](C(N)=O)[C@@H](CC(C)C)C(=O)N[C@H]1N=C(c2ccccc2)c2ccccc2N(C)C1=O | 3 |
| COc1ccc([C@H](C(N)=O)[C@@H](CCC(F)(F)F)C(=O)N[C@H]2N=C(c3ccccc3)c3ccccc3N(C)C2=O)cc1 | 4 |
| CN1C(=O)[C@@H](NC(=O)[C@H](CCC(F)(F)F)[C@@H](C(N)=O)c2cccc(C(F)(F)F)c2)N=C(c2ccccc2)c2ccccc21 | 13 |
| Cc1cccc([C@H](C(N)=O)[C@@H](CCC(F)(F)F)C(=O)N[C@H]2N=C(c3ccccc3)c3ccccc3N(C)C2=O)c1 | 15 |
| CCC[C@H](C(N)=O)[C@@H](CC(F)(F)F)C(=O)N[C@H]1N=C(c2ccccc2)c2ccccc2N(C)C1=O | 158 |
| CN1C(=O)[C@@H](NC(=O)[C@H](CCC(F)(F)F)[C@@H](C(N)=O)c2ccccc2)N=C(c2ccccc2)c2ccccc21 | 4 |

System: TALL-1
Assay: In vivo antitumor activity against human TALL-1 cells xenograft model assessed as tumor growth inhibition at 24 mg/kg, po qd for 10 days on - 2 days off - 5 days on
Format: functional
Details: read-out: TGI

| Structure (SMILES) | inhibition in vivo at 24 mg/kg [%] |
| --- | --- |
| CN1C(=O)[C@@H](NC(=O)[C@H](CCC(F)(F)F)[C@@H](C(N)=O)c2ccccc2)N=C(c2ccccc2)c2ccccc21 | 102 |

System: TALL-1
Assay: In vivo antitumor activity against human TALL-1 cells xenograft model assessed as tumor growth inhibition at 6 mg/kg, po qd for 10 days on - 2 days off - 5 days on
Format: functional
Details: read-out: TGI

| Structure (SMILES) | inhibition in vivo at 6 mg/kg [%] |
| --- | --- |
| CN1C(=O)[C@@H](NC(=O)[C@H](CCC(F)(F)F)[C@@H](C(N)=O)c2ccccc2)N=C(c2ccccc2)c2ccccc21 | 71 |

System: MDA-MB-157
Assay: In vivo antitumor activity against human MDA-MB-157 cells xenograft model assessed as tumor growth inhibition at 15 mg/kg, po qd for 10 days on - 2 days off - 5 days on
Format: functional
Details: read-out: TGI

| Structure (SMILES) | inhibition in vivo at 15 mg/kg [%] |
| --- | --- |
| CN1C(=O)[C@@H](NC(=O)[C@H](CCC(F)(F)F)[C@@H](C(N)=O)c2ccccc2)N=C(c2ccccc2)c2ccccc21 | 76 |

System: not listed separately
Assay: Metabolic stability in human liver microsomes assessed as fraction of 0.5 uM parent compound remaining after 10 mins
Format: ADME
Details: read-out: Stability

| Structure (SMILES) | remaining at 10 min, 0.5 µM [%] |
| --- | --- |
| CN1C(=O)[C@@H](NC(=O)[C@H](CCC(F)(F)F)[C@@H](C(N)=O)c2ccc(F)cc2)N=C(c2ccccc2)c2ccccc21 | 95 |
| CN1C(=O)[C@@H](NC(=O)[C@H](CCC(F)(F)F)[C@@H](C(N)=O)c2ccc(F)c(F)c2)N=C(c2ccccc2)c2ccccc21 | 94 |
| CN1C(=O)[C@@H](NC(=O)[C@H](CCC(F)(F)F)[C@@H](C(N)=O)c2cccc(S(C)(=O)=O)c2)N=C(c2ccccc2)c2ccccc21 | 93 |
| CCC(CC)[C@H](C(N)=O)[C@@H](CCC(F)(F)F)C(=O)N[C@H]1N=C(c2ccccc2)c2ccccc2N(C)C1=O | 5 |
| CN1C(=O)[C@@H](NC(=O)[C@H](CCC(F)(F)F)[C@@H](C(N)=O)c2cc(F)cc(F)c2)N=C(c2ccccc2)c2ccccc21 | 94 |
| CN1C(=O)[C@@H](NC(=O)[C@H](CCC(F)(F)F)[C@@H](C(N)=O)c2cccc(OC(F)(F)F)c2)N=C(c2ccccc2)c2ccccc21 | 100 |
| CCC(CC)[C@H](C(N)=O)[C@@H](CC(C)(C)C)C(=O)N[C@H]1N=C(c2ccccc2)c2ccccc2N(C)C1=O | 1 |
| CN1C(=O)[C@@H](NC(=O)[C@H](CCC(F)(F)F)[C@@H](C(N)=O)c2ccc(F)cc2F)N=C(c2ccccc2)c2ccccc21 | 100 |
| NC(=O)[C@@H](c1cnoc1)[C@@H](CCC(F)(F)F)C(=O)N[C@H]1N=C(c2ccccc2)c2ccccc2NC1=O | 96 |
| CCC(CC)[C@H](C(N)=O)[C@@H](CC(C)C)C(=O)N[C@H]1N=C(c2ccccc2)c2ccccc2N(C)C1=O | 2 |
| COc1ccc([C@H](C(N)=O)[C@@H](CCC(F)(F)F)C(=O)N[C@H]2N=C(c3ccccc3)c3ccccc3N(C)C2=O)cc1 | 62 |
| Cc1nc([C@H](C(N)=O)[C@@H](CCC(F)(F)F)C(=O)N[C@H]2N=C(c3ccccc3)c3ccccc3N(C)C2=O)no1 | 100 |
| NC(=O)[C@@H](c1ncon1)[C@@H](CCC(F)(F)F)C(=O)N[C@H]1N=C(c2ccccc2)c2ccccc2NC1=O | 84 |
| CN1C(=O)[C@@H](NC(=O)[C@H](CCC(F)(F)F)[C@@H](C(N)=O)c2cccc(C(F)(F)F)c2)N=C(c2ccccc2)c2ccccc21 | 92 |
| Cc1cccc([C@H](C(N)=O)[C@@H](CCC(F)(F)F)C(=O)N[C@H]2N=C(c3ccccc3)c3ccccc3N(C)C2=O)c1 | 23 |
| NC(=O)[C@@H](c1cocn1)[C@@H](CCC(F)(F)F)C(=O)N[C@H]1N=C(c2ccccc2)c2ccccc2NC1=O | 86 |
| CCC[C@H](C(N)=O)[C@@H](CC(F)(F)F)C(=O)N[C@H]1N=C(c2ccccc2)c2ccccc2N(C)C1=O | 45 |
| Cc1nocc1[C@H](C(N)=O)[C@@H](CCC(F)(F)F)C(=O)N[C@H]1N=C(c2ccccc2)c2ccccc2N(C)C1=O | 78 |
| Cc1cc([C@H](C(N)=O)[C@@H](CCC(F)(F)F)C(=O)N[C@H]2N=C(c3ccccc3)c3ccccc3N(C)C2=O)no1 | 94 |
| CN1C(=O)[C@@H](NC(=O)[C@H](CCC(F)(F)F)[C@@H](C(N)=O)c2ccccc2)N=C(c2ccccc2)c2ccccc21 | 95 |

System: MDA-MB-157
Assay: In vivo antitumor activity against human MDA-MB-157 cells xenograft model assessed as tumor growth inhibition at 30 mg/kg, po qd for 10 days on - 2 days off - 5 days on
Format: functional
Details: read-out: TGI

| Structure (SMILES) | inhibition in vivo at 30 mg/kg [%] |
| --- | --- |
| CN1C(=O)[C@@H](NC(=O)[C@H](CCC(F)(F)F)[C@@H](C(N)=O)c2ccccc2)N=C(c2ccccc2)c2ccccc21 | 99 |

System: TALL-1
Assay: In vivo antitumor activity against human TALL-1 cells xenograft model assessed as tumor growth inhibition treated po qd for 10 days on - 2 days off - 5 days on
Format: functional, organism-based
Details: not given

| Structure (SMILES) | inhibition |
| --- | --- |
| CN1C(=O)[C@@H](NC(=O)[C@H](CCC(F)(F)F)[C@@H](C(N)=O)c2ccccc2)N=C(c2ccccc2)c2ccccc21 | Dose-dependent effect |
